Test results taken from patent US20080293758A1, “Combination of a Steroid Sulfatase Inhibitor and an Ascomycin” (Novartis AG, priority 2005, published 2008).
Several values for one entry are separate records, joined by “and”; a condition that tells them apart may be missing. Equal values may be shown once.

Key:
[1] = target: T1, steroid sulfatase in human cadaver skin homogenate (Homo sapiens, UniProt P08842); assay: Assay Using Human Skin Homogenate (DHEAS cleavage); assay type: biochemical; conditions: 18 hrs at 37° C.
T1 construct: Frozen specimens of human cadaver skin (about 100 mg per sample) are minced into small pieces; from tissue; host or cells: human cadaver skin, minced and suspended in Tris buffer with 0.1% Triton X-100
T1 sequence (P08842 22-583): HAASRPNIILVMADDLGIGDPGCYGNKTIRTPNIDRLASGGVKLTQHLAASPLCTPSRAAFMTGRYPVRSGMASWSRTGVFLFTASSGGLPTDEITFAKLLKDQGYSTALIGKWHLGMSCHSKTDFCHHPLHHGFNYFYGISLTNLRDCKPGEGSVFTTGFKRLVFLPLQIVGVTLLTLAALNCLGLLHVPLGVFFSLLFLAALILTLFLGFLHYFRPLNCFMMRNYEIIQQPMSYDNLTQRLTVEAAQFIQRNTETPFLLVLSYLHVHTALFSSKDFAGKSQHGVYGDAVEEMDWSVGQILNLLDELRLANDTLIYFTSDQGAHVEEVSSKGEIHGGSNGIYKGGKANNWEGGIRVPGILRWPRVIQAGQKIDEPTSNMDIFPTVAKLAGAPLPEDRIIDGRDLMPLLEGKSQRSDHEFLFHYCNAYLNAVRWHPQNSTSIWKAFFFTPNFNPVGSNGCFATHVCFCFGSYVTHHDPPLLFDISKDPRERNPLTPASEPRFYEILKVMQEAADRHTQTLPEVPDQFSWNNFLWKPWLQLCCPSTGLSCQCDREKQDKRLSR
Procedure: Frozen specimens of human cadaver skin (about 100 mg per sample) are minced into small pieces (about 1×1 mm) using sharp scissors. The pieces obtained are suspended in ten volumes (w/w) of buffer (20 mM Tris-HCl, pH 7.5), containing 0.1% Triton X-100. Test compounds (e.g. compounds of the present invention) are added at graded concentrations from stock solutions in ethanol or DMSO. Second, DHEAS as the substrate is added ([…] [^3H]DHEAS, specific activity: about 60 Ci/mmol, and 20 μM unlabeled DHEAS). Samples are incubated for 18 hrs at 37° C. At the end of the incubation period, 50 μl of 1 M Tris, pH 10.4 and 3 ml of toluene are added. A 1-ml aliquot of the organic phase is removed and subjected to liquid scintillation counting. The determined dpm-values in the aliquots are converted to nmol of DHEA cleaved per g of skin per hour.

[2] = target: T2, purified human steroid sulfatase (Homo sapiens, UniProt P08842); assay: Assay of Human Steroid Sulfatase (4-methylumbelliferyl sulfate cleavage); assay type: biochemical; conditions: reference compound, determined in parallel
T2 construct: Human placenta is obtained freshly after delivery and stripped of membranes and connective tissues; from tissue; host or cells: human placenta (microsomes, Triton X-100 extract, hydroxy apatite / concanavalin A sepharose / blue sepharose chromatography)
T2 sequence (P08842 22-583): T1 sequence (P08842 22-583)
Procedure: For storage, the material is frozen at −70° C.
The activity is recovered in the flow-through.
Plates are incubated at 37° C. for 1 hour.
Relative IC50 values are defined as follows: […]

[3] = system: irritant contact dermatitis elicited with tetradecanoylphorbol-13-acetate (TPA) on mouse ears; assay: Anti-Inflammatory Test System (TPA-elicited irritant contact dermatitis, auricular weights); assay type: in vivo, mice, strain NMRI; conditions: topical 10 μl, 6 hours after TPA
Procedure: The test sites on the inner surface of the right external ears of mice, e.g. strain NMRI, (8 per group) are treated with 10 μl of the dissolved test compound or with the vehicle (a 4:4:2 mixture of ethanol/acetone/dimethylacetamide) alone. The test compounds are applied alone or in combination at concentrations shown in the TEST RESULT TABLE. Thirty minutes after the treatment irritant contact dermatitis is elicitated at the treated auricular sites with 10 μl 0.005% tetradecanoylphorbol-13-acetate (TPA).
Skin inflammation is assessed 6 hours after the elicitation by determination of the auricular weights, as a measure of inflammatory swelling. The animals are killed and both ears are cut off and weighed. Inhibitory activity of test compounds is calculated from differences in right and left ears (internal controls) in mice treated with the test compounds compared with animals treated with the vehicle only. Results obtained are as set out in TEST RESULT TABLE below:
In the TEST RESULT TABLE the concentrations of the compounds (in bold) used are indicated in micromol/litre. The values given in the TEST RESULT TABLE (in regular letters) are the inhibition in % determined according to the ANTI-INFLAMMATORY TEST SYSTEM used.

| SMILES | IC50 [1] | other results |
| --- | --- | --- |
| O=C(NS(=O)(=O)c1cc(C(F)(F)F)cc(C(F)(F)F)c1)C1C2CCCCC1CN(C(=O)CC1CCCC1)C2 (centres unmarked) [Example 208] | 30 to 270 nM |  |
| CC(C)(C)OC(=O)N1CC2CCCCC(C1)C2C(=O)NS(=O)(=O)c1cc(C(F)(F)F)cc(C(F)(F)F)c1 (centres unmarked) [Example 218] | 30 to 270 nM and 270 nM |  |
| NC(=O)c1ccc(C(F)(F)F)cc1N1CCC(CC(=O)NS(=O)(=O)c2cc(Cl)cc(Cl)c2)CC1 [Example 249] | 30 to 270 nM |  |
| NC(=O)c1ccc(C(F)(F)F)cc1N1CCC(CS(=O)(=O)NC(=O)c2cc(C(F)(F)F)cc(C(F)(F)F)c2)CC1 [Example 379] | 30 to 270 nM | melting point: 268 to 273 °C |
| C[C@]12CC[C@@H]3c4ccc(OS(N)(=O)=O)cc4CC[C@H]3[C@@H]1CCC2=O [estrone sulfamate, estrone 3-O-sulfamate] |  | IC50 [2]: ~60 nM |
| CC[C@@H]1/C=C(\C)C[C@H](C)C[C@H](OC)[C@H]2O[C@@](O)(C(=O)C(=O)N3CCCC[C@H]3C(=O)O[C@H](/C(C)=C/[C@@H]3CC[C@H](Cl)[C@H](OC)C3)[C@H](C)[C@@H](O)CC1=O)[C@H](C)C[C@@H]2OC [pimecrolimus, {[1E-(1R,3R,4S)]1R,9S,12S,13R,14S,17R,18E,21S,23S,24R,25S,27R}-12-[2-(4-chloro-3-methoxycyclohexyl)-1-methylvinyl]-17-ethyl-1,14-dihydroxy-23,25-dimethoxy-13,19,21,27-tetramethyl-11,28,dioxa-4-azatricyclo[22.3.1.0(4,9)]octacos-18-ene-2,3,10,16-tetraone] |  | inhibition in % ([3]; pimecrolimus 0.1, example 217 or 218 0 micromol/litre): 15%; inhibition in % ([3]; pimecrolimus 0.3, example 217 or 218 0 micromol/litre): 29%; inhibition in % ([3]; pimecrolimus 1.0, example 217 or 218 0 micromol/litre): 30%; inhibition in % ([3]; pimecrolimus 3.0, example 217 or 218 0 micromol/litre): 31%; inhibition in % ([3]; pimecrolimus 10, example 217 or 218 0 micromol/litre): 42% |

Continued, in another order:

| IC50 [1] | SMILES | other results |
| --- | --- | --- |
| 30 to 270 nM and 270 nM | CC(C)(C)OC(=O)N1CC2CCCCC(C1)C2C(=O)NS(=O)(=O)c1cc(C(F)(F)F)cc(C(F)(F)F)c1 (single isomer, unassigned) [Example 217, 10-(3,5-bis-trifluoromethyl-benzenesulfonylaminocarbonyl)-8-aza-bicyclo[4.3.1]decane-8-carboxylic acid tert-butyl ester] |  |
| 30 to 270 nM | NC(=O)c1ccc(C(F)(F)F)cc1N1CCC(CC(=O)NS(=O)(=O)c2cccc(Cl)c2Cl)CC1 [Example 248] |  |
| 30 to 270 nM | Cc1c(Cl)cccc1S(=O)(=O)NC(=O)CC1CCN(c2cc(C(F)(F)F)ccc2C(N)=O)CC1 [Example 251] |  |
